Assays:
[1] = system: unwaxed pixie oranges; assay: Mass loss factor of coated unwaxed pixie oranges (Example 13); format: in vivo, orange; conditions: 2 g/L sorbitan monolaurate added to 50 g/L 95/5 monostearate/sodium stearate, bowl dip, 70° C.
Protocol: (§1) As used herein, the term “mass loss factor” is defined as the ratio of the average mass loss rate of uncoated produce (measured for a control group) to the average mass loss rate of the corresponding tested produce (e.g., coated produce) over a given time.
FIG. 21 is a graph showing mass loss factors for unwaxed pixie oranges (“pixies”). One group of pixies was not treated. A second group of pixies was treated with 50 g/L of Treatment C. A third group of pixies was treated with 50 g/L of Treatment C and 2 g/L of a wetting agent (WAG). A fourth group of pixies was treated with 50 g/L of a 95/5 mixture of monostearate/sodium stearate and 2 g/L sorbitan monolaurate. The coatings were applied using a bowl dip method and were dried at a temperature of 70° C. […] The pixies were mostly dry (~80%) coming out of the heat tunnel.

[2] = X-ray scattering of thin-film coatings (Example 10); format: physicochemical; conditions: 95 wt% sorbitan ester / 5 wt% sodium stearate; film cast from 30 g/L aqueous solution, dried 40° C. 4 hours
Text: As used herein, “lamellar structure” refers to a structure comprising lamella(e) vertically stacked adjacent to each other and held together by intermolecular forces. As used herein, “lamella(e)” refers to one lamella or two or more lamellae, that is, one or more discrete layers of molecules, respectively. In some embodiments, the molecules present in the lamella(e) are ordered (e.g., aligned, as in an open bilayer). The distance between a surface of a lamella and a surface of an adjacent lamella that is facing the same direction is referred to herein as “interlayer spacing” or “periodic spacing”. Interlayer spacing between two lamellae is determined by (1) obtaining an out-of-plane X-ray scattering image of a coating, (2) determining the scattering vector (q) of the peak corresponding to the lamellar structure, and (3) using Bragg’s equation below, determine the interlayer spacing (d).
Coating agents were applied to the surface of a plastic substrate, which acts as a hydrophilic surface when exposed to air. An X-ray scattering image of the applied coat was obtained to identify characteristics of the coating.
Specifically, a coating agent of sorbitan monostearate (95 wt%) and sodium stearate (5 wt%) was applied to a substrate as a thin-film. The films were drop cast from a 30 g/L aqueous solution and dried at 40° C. for 4 hours. […] “LAM” refers to lamellar or bilayer morphology. […]

[3] = system: California avocados; assay: Respiration factor of coated California avocados (Example 11); format: in vivo, avocado; conditions: 30 g/L sorbitan ester
Text: (§2) As used herein, the term “respiration rate” refers to the rate at which the product releases gas, such as CO2. This rate can be determined from the volume of gas (e.g., CO2) (at standard temperature and pressure) released per unit time per unit weight of the product. The respiration rate can be expressed as ml gas/kg·hour. The respiration rate of the product can be measured by placing the product in a closed container of known volume that is equipped with a sensor, such as a CO2 sensor, recording the gas concentration within the container as a function of time, and then calculating the rate of gas release required to obtain the measured concentration values.
(§3) As used herein, the term “respiration factor” is defined as the ratio of the average gas diffusion (e.g., CO2 release) of uncoated produce (measured for a control group) to the average gas diffusion of the corresponding tested produce (e.g., coated produce) over a given time.
FIG. 17 is a graph showing mass loss factors for California avocados. The Untreated group of avocadoes was not treated. A second group of avocados was treated with 15 g/L of Treatment C. A third group of avocados was treated with 30 g/L of Treatment C. A fourth group of avocados was treated with 30 g/L sorbitan monopalmitate (MP) (100 wt%). A fifth group of avocados was treated with a 30 g/L sorbitan monostearate (MS). […]

[4] = system: Mexican avocados; assay: Mass loss factor of coated Mexican avocados (Example 12); format: in vivo, avocado; conditions: brush bed, dried 70° C., sorbitan monostearate as 94 wt% with 6 wt% sodium stearate
Protocol: as §1
FIG. 19 is a graph showing mass loss factors (MLF) for Mexican avocados. A first group of avocados was not treated. A second group of avocados was treated with 20 g/L of Treatment C. A third group of avocados was treated with 40 g/L of Treatment C. The monoglyceride coatings were mixed with a high shear mixer. A fourth group of avocados was treated with 20 g/L of a mixture of sorbitan monostearate (94 wt%) and sodium stearate (6 wt%). A fifth group of avocados was treated with 40 g/L of a mixture of sorbitan monostearate (94 wt%) and sodium stearate (6 wt%). The sorbitan monostearate coatings were mixed with blenders. The coatings were applied using a brush bed and were dried at a temperature of 70° C. […] The MLF of 20 g/L of […] monostearate/sodium stearate was 1.49 and the MLF of the 40 g/L 95/5 monostearate/sodium stearate was 2.24.

[5] = system: Mexican avocados; assay: Respiration factor of coated Mexican avocados (Example 12); format: in vivo, avocado; conditions: day 1
Text: as §2, §3
FIG. 19 is a graph showing mass loss factors (MLF) for Mexican avocados. A first group of avocados was not treated. A second group of avocados was treated with 20 g/L of Treatment C. A third group of avocados was treated with 40 g/L of Treatment C. The monoglyceride coatings were mixed with a high shear mixer. A fourth group of avocados was treated with 20 g/L of a mixture of sorbitan monostearate (94 wt%) and sodium stearate (6 wt%). […]

Substance: sorbitan monolaurate
- mass loss factor increase compared to the untreated substrates [1]: 3.56 times

Substance: sorbitan monopalmitate
- periodicity of alternating bilayers [2]: 5.6 nm
- respiration factor compared with 95/5 monostearate/sodium stearate at 30 g/L [3]: higher

Substance: sorbitan monostearate
- periodicity of alternating bilayers [2]: 5.5 nm
- respiration factor compared with 95/5 monostearate/sodium stearate at 30 g/L [3]: comparable
- MLF (mass loss factor) ([4]; 20 g/L): 1.83
- MLF (mass loss factor) ([4]; 40 g/L): 2.32
- RF (respiration factor) ([5]; 20 g/L): 1.15
- RF (respiration factor) ([5]; 40 g/L): 1.25
